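Grown in 96-well plates, cells were treated for 48 hours with each compound at five concentrations. Insufficient inhibition: endpoint recorded as highest concentration tested. At the TGI there is no net growth.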
Key:
Assay in all cases: NCI tumour cell line growth inhibition, 48 h
KM12 colon = test system: KM12 colon
COLO 205 colon = test system: COLO 205 colon
SN12C renal = test system: SN12C renal
NCI-H226 lung = test system: NCI-H226 lung
SN12K1 renal = test system: SN12K1 renal
P388/ADR leukemia = test system: P388/ADR leukemia
DMS 114 small cell lung = test system: DMS 114 small cell lung
NCI/ADR-RES ovarian = test system: NCI/ADR-RES ovarian
IGROV1 ovarian = test system: IGROV1 ovarian
OVCAR-8 ovarian = test system: OVCAR-8 ovarian
SNB-75 CNS = test system: SNB-75 CNS
HCC-2998 colon = test system: HCC-2998 colon
XF 498 CNS = test system: XF 498 CNS
HOP-18 NSCLC = test system: HOP-18 NSCLC
SK-OV-3 ovarian = test system: SK-OV-3 ovarian
CAKI-1 renal = test system: CAKI-1 renal
HCT-116 colon = test system: HCT-116 colon
NCI-H460 lung = test system: NCI-H460 lung
SNB-19 CNS = test system: SNB-19 CNS
UACC-62 melanoma = test system: UACC-62 melanoma
DMS 273 small cell lung = test system: DMS 273 small cell lung
OVCAR-5 ovarian = test system: OVCAR-5 ovarian
P388 leukemia = test system: P388 leukemia
A498 renal = test system: A498 renal
SNB-78 CNS = test system: SNB-78 CNS
SK-MEL-2 melanoma = test system: SK-MEL-2 melanoma
SF-268 CNS = test system: SF-268 CNS
HCT-15 colon = test system: HCT-15 colon
MOLT-4 leukemia = test system: MOLT-4 leukemia
EKVX NSCLC = test system: EKVX NSCLC
A549 NSCLC = test system: A549 NSCLC
K-562 leukemia = test system: K-562 leukemia
UO-31 renal = test system: UO-31 renal
U251 CNS = test system: U251 CNS
NCI-H23 lung = test system: NCI-H23 lung
RPMI-8226 leukemia = test system: RPMI-8226 leukemia
NCI-H522 lung = test system: NCI-H522 lung
OVCAR-3 ovarian = test system: OVCAR-3 ovarian
RXF 393 renal = test system: RXF 393 renal
SK-MEL-28 melanoma = test system: SK-MEL-28 melanoma
CCRF-CEM leukemia = test system: CCRF-CEM leukemia
SW-620 colon = test system: SW-620 colon
SK-MEL-5 melanoma = test system: SK-MEL-5 melanoma
HL-60(TB) leukemia = test system: HL-60(TB) leukemia
MCF7 breast = test system: MCF7 breast
KM20L2 colon = test system: KM20L2 colon
UACC-257 melanoma = test system: UACC-257 melanoma
OVCAR-4 ovarian = test system: OVCAR-4 ovarian
HT29 colon = test system: HT29 colon
HOP-92 NSCLC = test system: HOP-92 NSCLC
DLD-1 colon = test system: DLD-1 colon
MALME-3M melanoma = test system: MALME-3M melanoma
SF-295 CNS = test system: SF-295 CNS
HOP-62 NSCLC = test system: HOP-62 NSCLC
M19-MEL melanoma = test system: M19-MEL melanoma
SF-539 CNS = test system: SF-539 CNS
LOX IMVI melanoma = test system: LOX IMVI melanoma
LXFL 529 NSCLC = test system: LXFL 529 NSCLC
RXF-631 renal = test system: RXF-631 renal
ACHN renal = test system: ACHN renal
TK-10 renal = test system: TK-10 renal
M14 melanoma = test system: M14 melanoma
786-0 renal = test system: 786-0 renal
SR leukemia = test system: SR leukemia

Cc1ccc(N2Cc3c(ccc4ccccc34)OP2(=O)Oc2ccc(Cl)c(C)c2)cc1 (stereo not given)
TGI (KM12 colon): > 100 µM
TGI (COLO 205 colon): > 100 µM
TGI (SN12C renal): > 100 µM
TGI (NCI-H226 lung): > 100 µM
TGI (SN12K1 renal): > 100 µM
TGI (P388/ADR leukemia): > 100 µM
TGI (DMS 114 small cell lung): > 100 µM
TGI (NCI/ADR-RES ovarian): > 100 µM
TGI (IGROV1 ovarian): > 100 µM
TGI (OVCAR-8 ovarian): > 100 µM
TGI (SNB-75 CNS): > 100 µM
TGI (HCC-2998 colon): > 100 µM
TGI (XF 498 CNS): > 100 µM
TGI (HOP-18 NSCLC): > 100 µM
TGI (SK-OV-3 ovarian): > 100 µM
TGI (CAKI-1 renal): > 100 µM
TGI (HCT-116 colon): > 100 µM
TGI (NCI-H460 lung): > 100 µM
TGI (SNB-19 CNS): > 100 µM
TGI (UACC-62 melanoma): > 100 µM
TGI (DMS 273 small cell lung): > 100 µM
TGI (OVCAR-5 ovarian): > 100 µM
TGI (P388 leukemia): > 100 µM
TGI (A498 renal): > 100 µM
TGI (SNB-78 CNS): > 100 µM
TGI (SK-MEL-2 melanoma): > 100 µM
TGI (SF-268 CNS): > 100 µM
TGI (HCT-15 colon): > 100 µM
TGI (MOLT-4 leukemia): > 100 µM
TGI (EKVX NSCLC): > 100 µM
TGI (A549 NSCLC): > 100 µM
TGI (K-562 leukemia): > 100 µM
TGI (UO-31 renal): > 100 µM
TGI (U251 CNS): > 100 µM
TGI (NCI-H23 lung): > 100 µM
TGI (RPMI-8226 leukemia): > 22.3 µM
TGI (NCI-H522 lung): > 100 µM
TGI (OVCAR-3 ovarian): > 31.6 µM
TGI (RXF 393 renal): > 100 µM
TGI (SK-MEL-28 melanoma): > 100 µM
TGI (CCRF-CEM leukemia): > 100 µM
TGI (SW-620 colon): > 100 µM
TGI (SK-MEL-5 melanoma): > 100 µM
TGI (HL-60(TB) leukemia): > 100 µM
TGI (MCF7 breast): > 100 µM
TGI (KM20L2 colon): > 100 µM
TGI (UACC-257 melanoma): > 100 µM
TGI (OVCAR-4 ovarian): > 100 µM
TGI (HT29 colon): > 100 µM
TGI (HOP-92 NSCLC): > 100 µM
TGI (DLD-1 colon): > 100 µM
TGI (MALME-3M melanoma): > 100 µM
TGI (SF-295 CNS): > 100 µM
TGI (HOP-62 NSCLC): > 100 µM
TGI (M19-MEL melanoma): > 100 µM
TGI (SF-539 CNS): > 100 µM
TGI (LOX IMVI melanoma): > 100 µM

COCCCNC(=O)C1C(=O)N(CCCOC)C(=O)/C1=N\N (stereo not given)
TGI (KM12 colon): > 100 µM
TGI (COLO 205 colon): > 100 µM
TGI (LXFL 529 NSCLC): > 100 µM
TGI (SN12C renal): > 100 µM
TGI (RXF-631 renal): > 100 µM
TGI (DMS 114 small cell lung): > 100 µM
TGI (OVCAR-8 ovarian): > 100 µM
TGI (SNB-75 CNS): > 100 µM
TGI (HCC-2998 colon): > 100 µM
TGI (HOP-18 NSCLC): > 100 µM
TGI (ACHN renal): > 100 µM
TGI (HCT-116 colon): > 100 µM
TGI (NCI-H460 lung): > 100 µM
TGI (SNB-19 CNS): > 100 µM
TGI (TK-10 renal): > 100 µM
TGI (UACC-62 melanoma): > 100 µM
TGI (DMS 273 small cell lung): > 100 µM
TGI (OVCAR-5 ovarian): > 100 µM
TGI (A498 renal): > 100 µM
TGI (SNB-78 CNS): > 100 µM
TGI (SK-MEL-2 melanoma): > 100 µM
TGI (SF-268 CNS): > 100 µM
TGI (HCT-15 colon): > 100 µM
TGI (MOLT-4 leukemia): > 100 µM
TGI (EKVX NSCLC): > 100 µM
TGI (A549 NSCLC): > 100 µM
TGI (K-562 leukemia): > 100 µM
TGI (UO-31 renal): > 100 µM
TGI (U251 CNS): > 100 µM
TGI (NCI-H23 lung): > 100 µM
TGI (RPMI-8226 leukemia): > 100 µM
TGI (NCI-H522 lung): > 100 µM
TGI (OVCAR-3 ovarian): > 100 µM
TGI (RXF 393 renal): > 100 µM
TGI (SK-MEL-28 melanoma): > 100 µM
TGI (CCRF-CEM leukemia): > 100 µM
TGI (SW-620 colon): > 100 µM
TGI (SK-MEL-5 melanoma): > 100 µM
TGI (HL-60(TB) leukemia): > 100 µM
TGI (M14 melanoma): > 100 µM
TGI (KM20L2 colon): > 100 µM
TGI (UACC-257 melanoma): > 100 µM
TGI (OVCAR-4 ovarian): > 100 µM
TGI (HT29 colon): > 100 µM
TGI (HOP-92 NSCLC): > 100 µM
TGI (786-0 renal): > 100 µM
TGI (DLD-1 colon): > 100 µM
TGI (MALME-3M melanoma): > 100 µM
TGI (SF-295 CNS): > 100 µM
TGI (HOP-62 NSCLC): > 100 µM
TGI (M19-MEL melanoma): > 100 µM
TGI (SF-539 CNS): > 100 µM

COc1cc([C@@H]2c3cc4c(cc3C(N)C3COC(=O)[C@@H]32)OCO4)cc(OC)c1O (stereo not given in full)
TGI (COLO 205 colon): 0.362 µM
TGI (LXFL 529 NSCLC): > 100 µM
TGI (SN12C renal): > 100 µM
TGI (RXF-631 renal): 0.606 µM
TGI (IGROV1 ovarian): > 100 µM
TGI (HOP-18 NSCLC): > 100 µM
TGI (ACHN renal): > 100 µM
TGI (SR leukemia): 0.428 µM
TGI (HCT-116 colon): > 100 µM
TGI (SNB-19 CNS): 0.646 µM
TGI (TK-10 renal): > 100 µM
TGI (SF-268 CNS): > 100 µM
TGI (HCT-15 colon): > 100 µM
TGI (MOLT-4 leukemia): 1.17 µM
TGI (A549 NSCLC): > 100 µM
TGI (K-562 leukemia): > 100 µM
TGI (UO-31 renal): > 100 µM
TGI (NCI-H23 lung): > 100 µM
TGI (RPMI-8226 leukemia): > 100 µM
TGI (CCRF-CEM leukemia): > 100 µM
TGI (SW-620 colon): > 100 µM
TGI (HL-60(TB) leukemia): 0.555 µM
TGI (UACC-257 melanoma): > 100 µM
TGI (OVCAR-4 ovarian): > 100 µM
TGI (786-0 renal): > 100 µM
TGI (DLD-1 colon): > 100 µM
TGI (SF-295 CNS): > 100 µM
TGI (HOP-62 NSCLC): > 100 µM
TGI (M19-MEL melanoma): > 100 µM
TGI (SF-539 CNS): 0.586 µM
TGI (LOX IMVI melanoma): > 100 µM
